Reference: US7125869B2, “Polycyclic compounds which modulate PPARγ type receptors and cosmetic/pharmaceutical compositions comprised thereof” (Galderma Research & Development, priority 2002, dated 2006)

Biological target: T1, PPARγ (Homo sapiens, UniProt P37231)
T1 construct: Either way it is a handle, not a second protein
T1 sequence (P37231 238-505 limits assumed): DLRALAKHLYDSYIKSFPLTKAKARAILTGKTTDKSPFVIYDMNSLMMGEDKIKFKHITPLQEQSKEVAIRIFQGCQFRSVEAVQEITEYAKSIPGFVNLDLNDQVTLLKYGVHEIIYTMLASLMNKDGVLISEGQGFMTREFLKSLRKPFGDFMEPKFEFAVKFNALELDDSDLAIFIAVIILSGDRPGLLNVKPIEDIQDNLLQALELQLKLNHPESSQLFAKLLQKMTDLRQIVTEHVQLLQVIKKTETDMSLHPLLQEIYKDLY
Assay: Crossover-curve PPAR transactivation test (HeLN cells, luciferase reporter), PPARγ
Type: cell-based
Details: HeLN cells stably transfected with Gal-hPPARγ; Schild regression against reference agonist; n.a. means not active; read-out: PPARγ Kd app
Protocol: The activation of receptors with an agonist (activator) in HeLN cells leads to the expression of a reporter gene, luciferase, which, in the presence of a substrate, generates light. The modulation of the receptors is measured by quantifying the luminescence produced after incubating the cells in the presence of a reference agonist. The ligands displace the agonist from its site. The measurement of the activity is performed by quantifying the light produced. This measurement makes it possible to determine the modulatory activity of the compounds according to the invention by determining the constant that is the affinity of the molecule for the receptor. Since this value can fluctuate depending on the basal activity and the expression of the receptor, it is referred to as Kd apparent (KdApp in nM).
To determine this constant, “crossover curves” of the test product against a reference agonist are performed in a 96-well plate: 10 concentrations of the test product plus a concentration 0 are arranged in a line, and 7 concentrations of the agonist plus a concentration 0 are arranged in a column. This is 88 measurement points for 1 product and 1 receptor. The remaining 8 wells are used for repeatability controls.
Measurements are also taken for total agonist controls with the same products.
The HeLN cell lines used are stable transfectants containing the plasmids ERE-βGlob-Luc-SV-Neo (reporter gene) and PPAR (α, δ, γ) Gal-hPPAR. These cells are inoculated into 96-well plates at a rate of 10 000 cells per well in 100 μl of DMEM medium without phenol red and supplemented with 10% of defatted calf serum. The plates are then incubated at 37° C. and 7% CO2 for 16 hours.
The various dilutions of the test products and of the reference ligand are added at a rate of 5 μl per well. The plates are then incubated for 18 hours at 37° C. and 7% CO2. The culture medium is removed by turning over and 100 μl of a 1:1 PBS/luciferine mixture are added to each well. After 5 minutes, the plates are read by the luminescence detector.

Kd	Compound
250 nM	CCCCCCCC(=O)N(C)Cc1cccc(-c2ccc(N(C)c3ccccc3C(=O)O)cc2)c1 [Example 8, 2-(methyl-{3′-[(methyloctanoylamino)methyl]biphenyl-4-yl}amino)benzoic acid]
120 nM	COCCOCOc1ccc2cc(C(=O)N(C)Cc3cccc(-c4ccc(Nc5cccc(C(=O)N6CCC(C)CC6)c5)cc4)c3)ccc2c1 [Example 16, N-methyl-N-{4′-[3-(4-methylpiperidine-1-carbonyl)phenylamino]biphenyl-3-ylmethyl}-6-(2-methoxyethoxymethoxy)naphthalene-2-carboxylamide]
500 nM	COCCOCOc1ccc2cc(C(=O)N(C)Cc3cccc(-c4ccc(Nc5cccc(C(=O)N6CCOCC6)c5)cc4)c3)ccc2c1 [Example 17]
